Reference: ChEMBL document CHEMBL1127552, “Approaches toward selective inhibition of nitric oxide synthase” (J Med Chem, 1994)

Experiments:
[1] = target: T1, Nitric oxide synthase, inducible (Mus musculus, UniProt P29477); assay: Compound was tested for its inhibitory activity against macrophage NO2- synthesis
T1 sequence (P29477 whole entry): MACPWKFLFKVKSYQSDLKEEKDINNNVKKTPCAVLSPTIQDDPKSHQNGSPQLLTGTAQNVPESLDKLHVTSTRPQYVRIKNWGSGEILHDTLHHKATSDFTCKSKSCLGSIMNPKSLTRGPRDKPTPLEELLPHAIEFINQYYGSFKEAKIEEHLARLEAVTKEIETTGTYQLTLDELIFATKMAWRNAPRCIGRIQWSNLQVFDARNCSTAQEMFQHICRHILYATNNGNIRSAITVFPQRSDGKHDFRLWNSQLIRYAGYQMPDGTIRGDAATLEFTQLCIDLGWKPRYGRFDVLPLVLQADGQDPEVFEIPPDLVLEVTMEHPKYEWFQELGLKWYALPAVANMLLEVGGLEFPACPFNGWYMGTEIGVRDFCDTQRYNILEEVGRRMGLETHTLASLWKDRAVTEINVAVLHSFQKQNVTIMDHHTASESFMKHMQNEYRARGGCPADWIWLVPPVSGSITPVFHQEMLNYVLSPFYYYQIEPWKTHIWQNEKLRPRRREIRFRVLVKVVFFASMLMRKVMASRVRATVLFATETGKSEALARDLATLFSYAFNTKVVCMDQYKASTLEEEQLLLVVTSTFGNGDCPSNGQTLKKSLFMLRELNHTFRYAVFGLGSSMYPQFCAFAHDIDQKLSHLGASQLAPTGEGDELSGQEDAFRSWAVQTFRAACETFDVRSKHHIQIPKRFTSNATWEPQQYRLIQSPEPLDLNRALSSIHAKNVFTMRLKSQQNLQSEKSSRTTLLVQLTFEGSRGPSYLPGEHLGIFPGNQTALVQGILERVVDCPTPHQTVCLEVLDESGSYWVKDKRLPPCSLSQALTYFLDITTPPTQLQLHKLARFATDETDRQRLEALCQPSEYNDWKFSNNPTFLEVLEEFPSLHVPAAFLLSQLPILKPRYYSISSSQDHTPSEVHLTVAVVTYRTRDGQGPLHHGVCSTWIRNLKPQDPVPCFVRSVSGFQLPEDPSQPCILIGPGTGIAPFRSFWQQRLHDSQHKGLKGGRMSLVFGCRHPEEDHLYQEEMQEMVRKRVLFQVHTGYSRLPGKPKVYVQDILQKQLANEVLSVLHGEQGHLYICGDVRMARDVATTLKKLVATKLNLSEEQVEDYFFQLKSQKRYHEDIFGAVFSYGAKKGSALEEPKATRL

Nitric oxide synthase 3 = target: T2, Nitric oxide synthase 3 (Bos taurus, UniProt P29473); assay: Compound was tested for its inhibitory activity against endothelial NO2- synthesis
T2 sequence (P29473 whole entry): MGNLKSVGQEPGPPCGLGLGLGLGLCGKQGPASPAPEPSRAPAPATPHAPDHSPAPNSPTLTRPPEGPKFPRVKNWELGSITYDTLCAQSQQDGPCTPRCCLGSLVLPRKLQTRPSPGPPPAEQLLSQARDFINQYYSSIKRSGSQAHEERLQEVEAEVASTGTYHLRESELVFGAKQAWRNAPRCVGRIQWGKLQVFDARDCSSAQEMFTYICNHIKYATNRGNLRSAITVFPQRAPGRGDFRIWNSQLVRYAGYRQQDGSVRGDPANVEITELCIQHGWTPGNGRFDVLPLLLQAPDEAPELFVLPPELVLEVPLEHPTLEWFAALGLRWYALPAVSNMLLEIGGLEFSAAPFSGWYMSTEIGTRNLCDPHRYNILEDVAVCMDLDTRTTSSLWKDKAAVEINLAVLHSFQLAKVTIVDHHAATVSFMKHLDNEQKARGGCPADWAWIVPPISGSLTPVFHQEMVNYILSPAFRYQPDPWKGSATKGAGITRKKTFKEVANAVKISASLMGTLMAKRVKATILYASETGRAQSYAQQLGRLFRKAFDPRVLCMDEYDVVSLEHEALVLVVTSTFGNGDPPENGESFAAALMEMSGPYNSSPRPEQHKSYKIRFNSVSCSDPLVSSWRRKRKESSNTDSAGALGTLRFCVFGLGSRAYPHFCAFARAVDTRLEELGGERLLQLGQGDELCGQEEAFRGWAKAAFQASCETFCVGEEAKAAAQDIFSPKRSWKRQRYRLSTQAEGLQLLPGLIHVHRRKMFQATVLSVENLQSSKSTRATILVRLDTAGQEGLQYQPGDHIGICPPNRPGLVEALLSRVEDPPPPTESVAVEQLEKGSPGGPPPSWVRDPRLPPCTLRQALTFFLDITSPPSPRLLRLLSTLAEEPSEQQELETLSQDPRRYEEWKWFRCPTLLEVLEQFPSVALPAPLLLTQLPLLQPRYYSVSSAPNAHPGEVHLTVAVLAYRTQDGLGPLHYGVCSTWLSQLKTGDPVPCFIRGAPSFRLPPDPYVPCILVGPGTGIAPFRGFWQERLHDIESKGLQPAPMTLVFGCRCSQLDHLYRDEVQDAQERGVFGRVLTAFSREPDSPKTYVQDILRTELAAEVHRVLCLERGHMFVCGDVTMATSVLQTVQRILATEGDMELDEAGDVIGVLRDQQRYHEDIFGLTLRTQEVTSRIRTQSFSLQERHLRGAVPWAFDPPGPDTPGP

Row | Compound | IC50 [1] | IC50 (Nitric oxide synthase 3)
1 | CNC(N)NCCCC(N)C(=O)O (configuration not stated) | 60 µM | –
2 | COC(=O)[C@@H](N)CCCNC(=N)N[N+](=O)[O-] [L-NAME] | – | 100 µM
